Data from ChEMBL document CHEMBL2016481, “Cytotoxic cytochalasins from the endozoic fungus Phoma sp. of the giant jellyfish Nemopilema nomurai” (Bioorg Med Chem Lett, 2012).
Activity calls are given as the source filed them. The rule behind the calls is not given here.

How the values were obtained:
Type in all cases: functional, cell-based
SK-OV-3 = assay: Cytotoxicity against human SKOV3 cells after 48 hrs by SRB assay; conditions: SK-OV-3, 48 h
A549 = assay: Cytotoxicity against human A549 cells after 48 hrs by SRB assay; conditions: A549, 48 h
HeLa [1] = assay: Cytotoxicity against human HeLa cells after 48 hrs by SRB assay
XF498 = assay: Cytotoxicity against human XF498 cells after 48 hrs by SRB assay; conditions: XF498, 48 h
SK-MEL-2 = assay: Cytotoxicity against human SK-MEL-2 cells after 48 hrs by SRB assay; conditions: SK-MEL-2, 48 h
HCT-15 = assay: Cytotoxicity against human HCT15 cells after 48 hrs by SRB assay; conditions: HCT-15, 48 h
HeLa [2] = assay: Induction of mitochondrial apoptosis in human HeLa cells

With `C=C1[C@@H](C)[C@H]2[C@H](Cc3ccccc3)NC(=O)[C@]23OC(=O)/C=C/[C@H](O)CCC[C@@H](C)C/C=C/[C@H]3[C@@H]1O` [CYTOCHALASIN B] as the compound, how does the IC50 (SK-OV-3) read?
The IC50 was 0.46 µM.

And the IC50 (A549)?
The IC50 was 2.13 µM.

What about the IC50 (HeLa [1]) of the same compound?
Its IC50 is 7.9 µM.

And the inhibition (HeLa [1])?
The inhibition was “Dose-dependent effect”.

What about the IC50 (XF498) of the same compound?
The IC50 was 2.36 µM.

And the IC50 (SK-MEL-2)?
The IC50 was 0.67 µM.

And the IC50 (HCT-15)?
Its IC50 is 1.94 µM.

What about the Activity (HeLa [2]) of the same compound?
The Activity was “Active”.

With `CC1=C[C@@H]2/C=C/C[C@H](C)CCC[C@@H](O)/C=C/C(=O)[C@]23C(=O)N[C@@H](Cc2ccccc2)[C@@H]3[C@@H]1C` [DEOXAPHOMIN C] as the compound, how does the IC50 (SK-OV-3) read?
The IC50 was 5.48 µM.

And the IC50 (A549)?
Its IC50 is 8.58 µM.

And the IC50 (SK-MEL-2)?
The IC50 was 6.66 µM.

And the IC50 (HCT-15)?
Its IC50 is 8.43 µM.

What does the source list for `CC1=C(C)[C@H]2[C@H](Cc3ccccc3)NC(=O)[C@]23OC(=O)/C=C/[C@H](O)CCC[C@@H](C)C/C=C/[C@H]3[C@@H]1O`?
IC50 (SK-OV-3): 4.51 µM; IC50 (A549): 5.99 µM; IC50 (XF498): 12.3 µM; IC50 (SK-MEL-2): 5.28 µM; IC50 (HCT-15): 5.76 µM

`CC1=C(C)[C@H]2[C@H](Cc3ccccc3)NC(=O)[C@]23C(=O)/C=C/[C@H](O)CCC[C@@H](C)C/C=C/[C@H]3[C@@H]1O` [DEOXAPHOMIN B] was tested. Which IC50 (SK-OV-3) did it give?
The IC50 was 13.9 µM.

And the IC50 (A549)?
Its IC50 is 23.2 µM.

And the IC50 (SK-MEL-2)?
The IC50 was 12.4 µM.

What about the IC50 (HCT-15) of the same compound?
The IC50 was 29.3 µM.

Which results are given for `C[C@H]1C/C=C/[C@H]2[C@@H]3O[C@]3(C)[C@@H](C)[C@H]3[C@H](Cc4ccccc4)NC(=O)[C@]32OC(=O)/C=C/CCCC1`?
IC50 (SK-OV-3): 4.19 µM; IC50 (A549): 12.4 µM; IC50 (SK-MEL-2): 8.35 µM; IC50 (HCT-15): 3.91 µM

With `COc1cccc2c1C(=O)c1c(O)c3c(c(O)c1C2=O)C[C@@](O)(C(=O)CO)C[C@@H]3O[C@H]1C[C@H](N)[C@H](O)[C@H](C)O1` [DOXORUBICIN] as the compound, how does the IC50 (SK-OV-3) read?
The IC50 was 0.002 µM.

What about the IC50 (XF498) of the same compound?
The IC50 was 0.015 µM.

And the IC50 (SK-MEL-2)?
Its IC50 is 0.002 µM.

And the IC50 (HCT-15)?
Its IC50 is 0.035 µM.
